Reference: paper PMC4008608, “The Tertiary Origin of the Allosteric Activation of E. coli Glucosamine-6-Phosphate Deaminase Studied by Sol-Gel Nanoencapsulation of Its T Conformer” (PLoS ONE, 2014)

Key:
[1] = molecular target: T1, EcGNPDA (glucosamine-6-phosphate deaminase from Escherichia coli) (Escherichia coli, UniProt P0A759, C118S/D165C/S206W/C228S/C239S); assay: initial velocity fitted to MWC equation; assay type: biochemical; details: mutant F, soluble enzyme; MWC R-state substrate dissociation constant (stronger state) from velocity data; cooperative; read-out: K R ^a
T1 construct: gene nagB; full-length homohexamer; plasmid pTZ18RnagB in E. coli IBPC590 Δnag (stated for the mutant); encapsulated in silica sol-gel in T quaternary conformation (mutant F also in solution)
Text: initial velocity fitted to MWC equation on […] (glucosamine-6-phosphate deaminase from Escherichia coli)

[2] = molecular target: T2, EcGNPDA (glucosamine-6-phosphate deaminase from Escherichia coli) (Escherichia coli, UniProt P0A759); assay: near-UV circular dichroism of enzyme-doped gels, […] nm; assay type: binding; details: allosteric activator, 1 mM; ligand-free R-state gel; 100 mM Tris-HCl pH 7.7, 30°C
T2 construct: gene nagB; full-length homohexamer; plasmid pTZ18RnagB in E. coli IBPC590 Δnag (stated for the mutant); encapsulated in silica sol-gel in T quaternary conformation (mutant F also in solution)

Structure (SMILES) | Kd [1] | near-UV circular dichroism of enzyme-doped gels, 274 nm [2]
N[C@H]1C(O)O[C@H](COP(=O)(O)O)[C@@H](O)[C@@H]1O (some centres unmarked) [GlcN6P] | 440 ± 10 µM | –
CC(=O)N[C@H]1C(O)O[C@H](COP(=O)(O)O)[C@@H](O)[C@@H]1O (some centres unmarked) [GlcNAc6P] | – | Only the enzyme in the R state when in presence of the activator, displays
